Measured values as given in publication PMC11492034, “The MRGPRX2-substance P pathway regulates mast cell migration” (iScience, 2024).

Key:
[1] = tested on: MC progenitors; conditions: LTB4: ref 38, 40, 42; PGE2: no ref at this clause; cited from earlier work
[2] = tested on: asthmatic subjects; conditions: cited from earlier work
[3] = tested on: neurokinin 1 receptor; conditions: 100 nM aprepitant, SP 0.03-10, immature mast cells, n=1
Method: Chemotaxis assays were carried out using 8 μm pore ChemoTX™ assay plates (Neuroprobe, Gaithersburg, USA). Cells were first loaded with 5 μM Calcein-AM for 30 mins, 37°C/5% CO2 in cell culture medium prior to being washed and resuspended at a concentration of 1 x 10^6.ml^-1. Where appropriate cells were pre-incubated with Compound A or vehicle control. Chemoattractants were prepared in cell culture medium and placed in the lower chamber. The plate was constructed and 50 μl cell suspension applied to the upper part of the membrane of each well. No chemoattractant and equal chemoattractant on both sides of the chamber were used to control for random cell movement. The plate was incubated for 6 hours 37°C/5% CO2 before analysis of migrated cells, as follows. Cells were removed from above the membrane by pipetting, the membrane was then washed with PBS buffer containing 2mM EDTA and wiped using a rubber filter wiper (Neuroprobe). PBS/EDTA was applied to the upper side of the membrane and the plate incubated for 30 mins at 4°C before again being wiped. The plate was then centrifuged at 500 x g for 5 mins to capture cells attached to the underside of the membrane. […] Total migrated cells were counted as Live/Dead™-/Calcein-AM+/CD117+ cells or Live/Dead™-/Calcein-AM+ cells in each sample. […]

[4] = molecular target: T1, MRGPRX2 (Homo sapiens, UniProt Q96LB1); conditions: 15 min; 1 µM (PACAP1-38, PACAP1-27, PAMP9-20, VIP) or 10 µM (CGRP); concentration response 0.01-100 µM, n=1 of a mix of 2 donors
Method: Degranulation was assessed by labelling of externalised CD63 (clone H5C6) as previously established[3] in response to substance P (Genscript, Oxford, UK), IgE/anti-IgE, anti-FcεRIα (clone AER37, Biolegend, London, UK) or C3a (CompTech, Tyler, USA). In all cases, cells were washed in PBS prior to incubation with live/dead™ reagent before analysis. […] Fc blocking reagent and antibodies were added, diluted in 1x permeabilisation buffer (BD Bioscience, Winnersh, UK), cells were washed and incubated with goat anti-mouse polyclonal antibodies labelled with PE or APC (Biolegend, London, UK). All cells were analysed on FACSymphony A5 or LSRFostessa instruments, and FlowJo software (BD Bioscience, Winnersh, UK). CD63 externalisation was used as a surrogate for MC degranulation according to established methodology.[52]^,[53]^,[54]
Putative MRGPRX2 ligand activation of MRGPRX2 positive cells.
(A) Gating showing degranulation, as measured by CD63 externalisation (x-axis), vs MRGPRX2 expression (y-
axis) after 15 mins of treatment with labelled agonists at 1µM (PACAP1-38, PACAP1-27, PAMP9-20, VIP) or
Percentage of cells in each quadrant is shown.
(B) Degranulation of mast cells in response to agonists (0.01-100 µM) after 15 minutes of application, as
shown. Data are n=1 of a mix of 2 donors.

[5] = molecular target: T1, MRGPRX2; conditions: cited from earlier work

T1 sequence (Q96LB1 whole entry): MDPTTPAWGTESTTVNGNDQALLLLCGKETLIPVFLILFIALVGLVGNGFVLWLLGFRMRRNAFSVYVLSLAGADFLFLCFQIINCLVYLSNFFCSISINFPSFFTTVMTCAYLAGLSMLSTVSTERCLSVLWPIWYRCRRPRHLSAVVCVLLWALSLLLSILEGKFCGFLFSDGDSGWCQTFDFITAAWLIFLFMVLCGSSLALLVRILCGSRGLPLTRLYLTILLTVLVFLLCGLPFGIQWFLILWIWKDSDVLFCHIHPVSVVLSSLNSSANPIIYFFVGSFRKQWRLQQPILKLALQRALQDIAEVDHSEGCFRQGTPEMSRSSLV

CCCCC/C=C\C[C@@H](O)/C=C/C=C/C=C\[C@@H](O)CCCC(=O)O [LTB4]
effect on MC migration [1]: known to attract MC progenitors, recruiting them from the circulation, and lose its effect upon MC maturation

CCCCC[C@H](O)/C=C/[C@H]1[C@H](O)CC(=O)[C@@H]1C/C=C\CCCC(=O)O [PGE2]
effect on MC migration [1]: more prone to regulating cell movement within the tissue

CSCC[C@H](NC(=O)[C@H](CC(C)C)NC(=O)CNC(=O)[C@H](Cc1ccccc1)NC(=O)[C@H](Cc1ccccc1)NC(=O)[C@H](CCC(N)=O)NC(=O)[C@H](CCC(N)=O)NC(=O)[C@@H]1CCCN1C(=O)[C@H](CCCCN)NC(=O)[C@@H]1CCCN1C(=O)[C@@H](N)CCCN=C(N)N)C(N)=O [SP]
bronchoconstriction in asthmatic subjects [2]: does not induce bronchoconstriction

C[C@@H](O[C@H]1OCCN(Cc2n[nH]c(=O)[nH]2)[C@H]1c1ccc(F)cc1)c1cc(C(F)(F)F)cc(C(F)(F)F)c1 [aprepitant]
inhibition of SP-induced chemotaxis [3]: did not

CGRP
CD63 degranulation, neuropeptide [4]: minimal effect

LL-37
binding to MRGPRX2 [5]: binds

PAMP-20
binding to MRGPRX2 [5]: binds

cortistatin-14
binding to MRGPRX2 [5]: binds
